The source of these data is US9649309B2 (priority 2014, dated 2017).

The structures appear in SMILES notation. Like-named read-outs stand apart in the source and are kept apart here.

Experiment [1] deals with T1, Tyro3 (Homo sapiens (Human), UniProt Q06418). Briefly: biochemical.
Experiment [2] concerns the target T2, Axl (Homo sapiens (Human), UniProt P30530). The experiment in a line: biochemical.
The target of a further experiment is MerTK (Homo sapiens (Human), UniProt Q12866). The note with it: read-out: IC50 MerTK.
MerTK, sequence (Q12866 21-999 limits assumed): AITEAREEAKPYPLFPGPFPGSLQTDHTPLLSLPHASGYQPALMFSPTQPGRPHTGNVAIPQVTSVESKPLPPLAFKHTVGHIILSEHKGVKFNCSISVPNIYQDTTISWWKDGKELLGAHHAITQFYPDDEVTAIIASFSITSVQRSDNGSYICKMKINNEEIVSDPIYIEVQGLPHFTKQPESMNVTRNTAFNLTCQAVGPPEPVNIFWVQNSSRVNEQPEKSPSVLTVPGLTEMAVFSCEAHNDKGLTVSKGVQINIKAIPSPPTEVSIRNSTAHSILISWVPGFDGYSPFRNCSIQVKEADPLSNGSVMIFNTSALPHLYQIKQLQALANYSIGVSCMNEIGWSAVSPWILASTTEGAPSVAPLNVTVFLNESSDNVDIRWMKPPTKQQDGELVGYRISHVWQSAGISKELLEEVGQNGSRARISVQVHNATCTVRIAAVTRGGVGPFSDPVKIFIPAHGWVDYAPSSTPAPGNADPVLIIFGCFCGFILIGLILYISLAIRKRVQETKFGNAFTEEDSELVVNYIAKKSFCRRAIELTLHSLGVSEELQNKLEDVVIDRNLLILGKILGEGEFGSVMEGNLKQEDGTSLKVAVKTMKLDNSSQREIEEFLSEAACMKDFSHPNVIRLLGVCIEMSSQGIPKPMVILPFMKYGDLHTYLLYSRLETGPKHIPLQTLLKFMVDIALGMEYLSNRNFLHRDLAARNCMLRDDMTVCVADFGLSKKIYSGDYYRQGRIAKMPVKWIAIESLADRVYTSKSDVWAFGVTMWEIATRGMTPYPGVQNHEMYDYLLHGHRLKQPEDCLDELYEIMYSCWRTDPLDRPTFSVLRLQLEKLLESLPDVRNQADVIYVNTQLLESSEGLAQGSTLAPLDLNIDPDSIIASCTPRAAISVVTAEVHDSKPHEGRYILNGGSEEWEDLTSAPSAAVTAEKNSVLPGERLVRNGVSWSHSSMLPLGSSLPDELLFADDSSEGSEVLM
Experiment [3] addresses T1, Tyro3. The note with it: read-out: IC50 Tyro3.
In experiment [4] the target is T2, Axl. To be noted: read-out: IC50 Axl.

T1 sequence (Q06418 41-890 limits assumed): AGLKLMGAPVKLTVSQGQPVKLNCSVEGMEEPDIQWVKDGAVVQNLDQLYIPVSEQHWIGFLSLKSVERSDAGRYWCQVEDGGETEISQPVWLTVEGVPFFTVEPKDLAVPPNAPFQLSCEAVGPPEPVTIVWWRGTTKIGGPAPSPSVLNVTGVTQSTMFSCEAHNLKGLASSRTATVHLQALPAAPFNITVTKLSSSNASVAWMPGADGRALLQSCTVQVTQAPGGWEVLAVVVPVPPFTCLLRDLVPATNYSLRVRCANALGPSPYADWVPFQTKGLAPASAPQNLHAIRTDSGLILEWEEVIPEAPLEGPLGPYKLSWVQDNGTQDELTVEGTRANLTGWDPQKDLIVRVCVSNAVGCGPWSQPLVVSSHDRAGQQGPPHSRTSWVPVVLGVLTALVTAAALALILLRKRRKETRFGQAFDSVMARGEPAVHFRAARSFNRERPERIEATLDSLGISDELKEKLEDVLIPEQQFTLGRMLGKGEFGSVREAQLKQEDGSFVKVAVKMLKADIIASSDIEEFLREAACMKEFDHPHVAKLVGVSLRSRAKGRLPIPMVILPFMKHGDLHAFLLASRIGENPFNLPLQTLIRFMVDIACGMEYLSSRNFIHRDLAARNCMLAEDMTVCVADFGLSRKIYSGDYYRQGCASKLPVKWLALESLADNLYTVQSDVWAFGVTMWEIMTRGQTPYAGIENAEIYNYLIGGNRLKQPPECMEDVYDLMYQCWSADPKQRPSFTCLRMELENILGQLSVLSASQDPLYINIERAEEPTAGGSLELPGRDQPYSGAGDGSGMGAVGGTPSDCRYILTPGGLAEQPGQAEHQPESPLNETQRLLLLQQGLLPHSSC
T2 sequence (P30530 26-894 limits assumed): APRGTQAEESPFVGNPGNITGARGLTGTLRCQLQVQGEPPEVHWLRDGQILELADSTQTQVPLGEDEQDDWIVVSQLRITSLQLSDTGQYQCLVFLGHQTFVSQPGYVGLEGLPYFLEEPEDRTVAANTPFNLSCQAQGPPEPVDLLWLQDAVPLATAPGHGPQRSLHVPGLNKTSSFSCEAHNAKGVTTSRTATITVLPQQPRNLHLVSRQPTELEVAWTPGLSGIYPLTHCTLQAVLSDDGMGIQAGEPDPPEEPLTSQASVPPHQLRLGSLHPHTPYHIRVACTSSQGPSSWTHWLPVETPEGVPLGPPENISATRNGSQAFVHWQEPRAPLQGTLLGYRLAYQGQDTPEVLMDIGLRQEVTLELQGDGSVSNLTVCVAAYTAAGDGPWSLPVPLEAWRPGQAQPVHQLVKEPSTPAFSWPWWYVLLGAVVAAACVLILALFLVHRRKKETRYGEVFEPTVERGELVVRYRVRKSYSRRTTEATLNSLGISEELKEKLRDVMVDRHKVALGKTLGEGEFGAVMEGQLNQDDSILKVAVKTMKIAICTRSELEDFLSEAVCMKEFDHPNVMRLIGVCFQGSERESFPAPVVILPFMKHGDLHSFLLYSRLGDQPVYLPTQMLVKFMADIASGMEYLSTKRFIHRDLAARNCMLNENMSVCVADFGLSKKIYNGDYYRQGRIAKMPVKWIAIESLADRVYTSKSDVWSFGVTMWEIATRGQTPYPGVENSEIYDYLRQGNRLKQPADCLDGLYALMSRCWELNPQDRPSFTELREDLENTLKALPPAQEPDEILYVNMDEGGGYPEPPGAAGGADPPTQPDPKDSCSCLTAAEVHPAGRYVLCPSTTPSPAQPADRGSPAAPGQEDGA

Regarding `CCCCNc1ncc(-c2ccc(CCCN3CCN(C)CC3)cn2)c(N[C@H]2CC[C@H](O)CC2)n1` [UNC2792A], the IC50 is 75 nM against Tyro3 [1] and 191 nM against Axl [2].
Taken in the same sequence, the figures for `CCCCNc1ncc(-c2ccc(C#CCN3CCN(C)CC3)cn2)c(N[C@H]2CC[C@H](O)CC2)n1` [UNC2793A] were 60 nM and 153 nM.
As for `CCCCNc1ncc(-c2cnccn2)c(N[C@H]2CC[C@H](O)CC2)n1` [UNC2794A], the IC50 was determined as 158 nM against Tyro3 [1] and 604 nM against Axl [2].
Taken in the same sequence, the figures for `CCCCNc1ncc(-c2ccc(CCN3CCN(C)CC3)cn2)c(N[C@H]2CC[C@H](O)CC2)n1` [UNC2795A] were 82 nM and 211 nM.
Taken in the same sequence, the figures for `CCCCNc1ncc(-c2ccc3ccccc3n2)c(N[C@H]2CC[C@H](O)CC2)n1` [UNC2860A] were 755 nM and 30000 nM.
For `CCCCNc1ncc(-c2ncc(COCc3ccccc3)s2)c(N[C@H]2CC[C@H](O)CC2)n1` [UNC2863A] the same measures were 1220 nM and 2610 nM.
For the molecule `CCCCNc1ncc(-c2ccc(CN3CCOCC3)o2)c(N[C@H]2CC[C@H](O)CC2)n1` [UNC2898A], the figures for the IC50 on Tyro3 [1] and against Axl [2] were 374 nM and 2550 nM, respectively.
For `CCCCNc1ncc(-c2ccc(CN3CC(F)(F)C3)o2)c(N[C@H]2CC[C@H](O)CC2)n1` [UNC2900A] the same measures were 370 nM and 1850 nM.
Taken in the same sequence, the figures for `CCCCNc1ncc(-c2ccc(C(=O)N(C)C3CCN(C)CC3)cn2)c(N[C@H]2CC[C@H](O)CC2)n1` [UNC2915A] were 6.5 nM and 49 nM.
`CCCCNc1ncc(-c2ccc(F)cn2)c(NC[C@H]2CC[C@H](N)CC2)n1` [UNC3021A]: the figures for the IC50 at Tyro3 [1] and against Axl [2] were 114 nM and 621 nM, respectively.
`CCCCNc1ncc(-c2ccc(C(=O)NC3CCN(C)CC3)o2)c(N[C@H]2CC[C@H](O)CC2)n1` [UNC3181A]: the IC50 at Tyro3 [1] is 507 nM; against Axl [2], 1030 nM.
Taken in the same sequence, the figures for `CCCCNc1ncc(-c2cc(NC(C)C)ncn2)c(N[C@H]2CC[C@H](O)CC2)n1` [UNC3192A] were 77 nM and 86 nM.
Taken in the same sequence, the figures for `CCCCNc1ncc(-c2cc(NC3CC3)ncn2)c(N[C@H]2CC[C@H](O)CC2)n1` [UNC3193A] were 115 nM and 169 nM.
Taken in the same sequence, the figures for `CCCCNc1ncc(-c2cc(NC3CCCCC3)ncn2)c(N[C@H]2CC[C@H](O)CC2)n1` [UNC3194A] were 239 nM and 260 nM.
Regarding `CCCCNc1ncc(-c2cc(N3CCCC3)ncn2)c(N[C@H]2CC[C@H](O)CC2)n1` [UNC3195A], the IC50 at Tyro3 [1] is 230 nM; against Axl [2], 188 nM.
Taken in the same sequence, the figures for `CCCCNc1ncc(-c2cc(N3CCOCC3)ncn2)c(N[C@H]2CC[C@H](O)CC2)n1` [UNC3196A] were 1000 nM and 2130 nM.
Taken in the same sequence, the figures for `CCCCNc1ncc(-c2cc(N3CCN(C)CC3)ncn2)c(N[C@H]2CC[C@H](O)CC2)n1` [UNC3197A] were 1170 nM and 1680 nM.
Regarding `CCCCNc1ncc(-c2cc(N3CCCCC3)ncn2)c(N[C@H]2CC[C@H](O)CC2)n1` [UNC3198A], the IC50 stood at 3740 nM on Tyro3 [1] and 6070 nM at Axl [2].
For `CCCCNc1ncc(-c2cc(NC3CCCC3)ncn2)c(N[C@H]2CC[C@H](O)CC2)n1` [UNC3199A] the same measures were 847 nM and 1360 nM.
For `CCCCNc1ncc(-c2cc(NC(C)(C)C)ncn2)c(N[C@H]2CC[C@H](O)CC2)n1` [UNC3200A], the IC50 against Tyro3 [1] worked out at 259 nM; on Axl [2], 480 nM.
Taken in the same sequence, the figures for `CCCCCNc1cc(-c2cnc(NCCCC)nc2N[C@H]2CC[C@H](O)CC2)ncn1` [UNC3201A] were 195 nM and 112 nM.
For `CCCCNc1ncc(-c2ncc(CN3CCCC3)s2)c(N[C@H]2CC[C@H](O)CC2)n1` [UNC4223A] the same measures were 14 nM and 29 nM.
For `CCCCNc1ncc(-c2ccc(CC3CCN(C)CC3)cn2)c(N[C@H]2CC[C@H](O)CC2)n1` [UNC4337A, Trans-4-((2-(butylamino)-5-(5-((1-methylpiperidin-4-yl)methyl)pyridin-2-yl)pyrimidin-4-yl)amino)cyclohexan-1-ol], the IC50 on MerTK worked out at 4.4 nM; on Tyro3 [3], 66 nM; at Axl [4] it was 74 nM.
For the molecule `CCCCNc1ncc(-c2ccc(C=C3CCN(C(C)C)CC3)cn2)c(N[C@H]2CC[C@H](O)CC2)n1` [UNC4340A], the IC50 was determined as 1.1 nM on MerTK, 8.5 nM on Tyro3 [3] and 9.2 nM on Axl [4].
